Data reported in the kinase profiling compilation of Christmann-Franck et al. (2016).

Assays:
Experiment in all cases: radiometric filter-binding kinase assay
[1] = system: AKT1 (human), P31749 [S473D]
AURKA (human) = AURKA (human) (UniProt O14965)
BRSK1 (human) = BRSK1 (human) (UniProt Q8TDC3)
DYRK2 (human) = DYRK2 (human) (UniProt Q92630)
EEF2K (human) = EEF2K (human) (UniProt O00418)
EPHA2 (human) = EPHA2 (human) (UniProt P29317)
EPHB3 (human) = EPHB3 (human) (UniProt P54753)
ERBB4 (human) = ERBB4 (human) (UniProt Q15303)
GSK3B (human) = GSK3B (human) (UniProt P49841)
HIPK3 (human) = HIPK3 (human) (UniProt Q9H422)
INSR (human) = INSR (human) (UniProt P06213)
IRAK4 (human) = IRAK4 (human) (UniProt Q9NWZ3)
MAP2K2 (human) = MAP2K2 (human) (UniProt P36507)
MAP2K6 (human) = MAP2K6 (human) (UniProt P52564)
MAP3K1 (human) = MAP3K1 (human) (UniProt Q13233)
MAP3K11 (human) = MAP3K11 (human) (UniProt Q16584)
MAP3K5 (human) = MAP3K5 (human) (UniProt Q99683)
MAP3K7 TAB1 (human) = MAP3K7 TAB1 (human) (UniProt Q15750+O43318)
MAP3K9 (human) = MAP3K9 (human) (UniProt P80192)
MAPK12 (human) = MAPK12 (human) (UniProt P53778)
MAPK9 (human) = MAPK9 (human) (UniProt P45984)
MAPKAPK2 (human) = MAPKAPK2 (human) (UniProt P49137)
MARK1 (human) = MARK1 (human) (UniProt Q9P0L2)
MARK2 (human) = MARK2 (human) (UniProt Q7KZI7)
MARK4 (human) = MARK4 (human) (UniProt Q96L34)
MELK (human) = MELK (human) (UniProt Q14680)
MST4 (human) = MST4 (human) (UniProt Q9P289)
NTRK1 (human) = NTRK1 (human) (UniProt P04629)
NUAK1 (human) = NUAK1 (human) (UniProt O60285)
PAK4 (human) = PAK4 (human) (UniProt O96013)
PAK6 (human) = PAK6 (human) (UniProt Q9NQU5)
PIM1 (human) = PIM1 (human) (UniProt P11309)
PKN2 (human) = PKN2 (human) (UniProt Q16513)
PRKCA (human) = PRKCA (human) (UniProt P17252)
PRKCZ (human) = PRKCZ (human) (UniProt Q05513)
[2] = target: STK11 CAB39 STRADA (human) (UniProt Q9Y376+Q7RTN6+Q15831)

Sequence of AKT1 (human), P31749 [S473D] (P31749 whole entry S473D, looked up): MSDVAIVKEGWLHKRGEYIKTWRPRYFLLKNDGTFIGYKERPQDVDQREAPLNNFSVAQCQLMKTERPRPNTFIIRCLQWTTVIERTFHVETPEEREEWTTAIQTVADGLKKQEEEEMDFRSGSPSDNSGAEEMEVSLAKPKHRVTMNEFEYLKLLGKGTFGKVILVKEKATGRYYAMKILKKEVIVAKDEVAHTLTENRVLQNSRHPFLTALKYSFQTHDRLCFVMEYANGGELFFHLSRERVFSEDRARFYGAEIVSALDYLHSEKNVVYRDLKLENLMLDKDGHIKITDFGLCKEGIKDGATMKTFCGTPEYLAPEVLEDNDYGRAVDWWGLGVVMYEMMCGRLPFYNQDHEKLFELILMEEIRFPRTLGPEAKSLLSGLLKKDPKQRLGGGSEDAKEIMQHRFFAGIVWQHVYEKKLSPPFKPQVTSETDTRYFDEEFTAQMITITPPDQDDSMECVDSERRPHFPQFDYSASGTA
Sequence of MAPK9 (human) (P45984 whole entry, looked up): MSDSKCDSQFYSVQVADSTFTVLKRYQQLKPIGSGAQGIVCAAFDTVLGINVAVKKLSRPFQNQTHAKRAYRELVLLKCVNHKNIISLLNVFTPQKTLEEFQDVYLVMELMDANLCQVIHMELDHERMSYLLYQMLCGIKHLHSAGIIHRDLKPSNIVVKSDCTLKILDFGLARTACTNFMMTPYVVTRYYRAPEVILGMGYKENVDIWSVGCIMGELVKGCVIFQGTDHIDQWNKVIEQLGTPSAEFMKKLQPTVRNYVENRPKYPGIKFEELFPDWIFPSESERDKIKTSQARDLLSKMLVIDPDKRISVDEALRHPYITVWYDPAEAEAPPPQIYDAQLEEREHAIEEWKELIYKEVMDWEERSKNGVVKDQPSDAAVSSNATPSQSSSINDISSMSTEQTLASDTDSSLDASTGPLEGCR
Sequence of PAK4 (human) (O96013 whole entry, looked up): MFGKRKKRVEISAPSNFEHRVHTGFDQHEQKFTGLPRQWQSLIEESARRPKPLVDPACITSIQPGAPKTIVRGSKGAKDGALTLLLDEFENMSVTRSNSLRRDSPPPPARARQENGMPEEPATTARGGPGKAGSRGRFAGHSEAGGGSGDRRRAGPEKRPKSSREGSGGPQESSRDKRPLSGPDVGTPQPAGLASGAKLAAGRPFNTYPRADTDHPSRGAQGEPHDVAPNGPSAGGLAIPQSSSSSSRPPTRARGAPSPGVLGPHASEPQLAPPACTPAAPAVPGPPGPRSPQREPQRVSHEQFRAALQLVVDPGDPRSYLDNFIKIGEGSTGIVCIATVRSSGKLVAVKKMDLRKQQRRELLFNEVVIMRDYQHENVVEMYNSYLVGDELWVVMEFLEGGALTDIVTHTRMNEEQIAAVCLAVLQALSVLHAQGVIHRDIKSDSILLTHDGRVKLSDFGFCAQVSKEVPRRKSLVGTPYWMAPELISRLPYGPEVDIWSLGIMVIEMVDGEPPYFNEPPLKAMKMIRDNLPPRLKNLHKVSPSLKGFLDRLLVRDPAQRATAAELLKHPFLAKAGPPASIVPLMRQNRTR
Sequence of PKN2 (human) (Q16513 whole entry, looked up): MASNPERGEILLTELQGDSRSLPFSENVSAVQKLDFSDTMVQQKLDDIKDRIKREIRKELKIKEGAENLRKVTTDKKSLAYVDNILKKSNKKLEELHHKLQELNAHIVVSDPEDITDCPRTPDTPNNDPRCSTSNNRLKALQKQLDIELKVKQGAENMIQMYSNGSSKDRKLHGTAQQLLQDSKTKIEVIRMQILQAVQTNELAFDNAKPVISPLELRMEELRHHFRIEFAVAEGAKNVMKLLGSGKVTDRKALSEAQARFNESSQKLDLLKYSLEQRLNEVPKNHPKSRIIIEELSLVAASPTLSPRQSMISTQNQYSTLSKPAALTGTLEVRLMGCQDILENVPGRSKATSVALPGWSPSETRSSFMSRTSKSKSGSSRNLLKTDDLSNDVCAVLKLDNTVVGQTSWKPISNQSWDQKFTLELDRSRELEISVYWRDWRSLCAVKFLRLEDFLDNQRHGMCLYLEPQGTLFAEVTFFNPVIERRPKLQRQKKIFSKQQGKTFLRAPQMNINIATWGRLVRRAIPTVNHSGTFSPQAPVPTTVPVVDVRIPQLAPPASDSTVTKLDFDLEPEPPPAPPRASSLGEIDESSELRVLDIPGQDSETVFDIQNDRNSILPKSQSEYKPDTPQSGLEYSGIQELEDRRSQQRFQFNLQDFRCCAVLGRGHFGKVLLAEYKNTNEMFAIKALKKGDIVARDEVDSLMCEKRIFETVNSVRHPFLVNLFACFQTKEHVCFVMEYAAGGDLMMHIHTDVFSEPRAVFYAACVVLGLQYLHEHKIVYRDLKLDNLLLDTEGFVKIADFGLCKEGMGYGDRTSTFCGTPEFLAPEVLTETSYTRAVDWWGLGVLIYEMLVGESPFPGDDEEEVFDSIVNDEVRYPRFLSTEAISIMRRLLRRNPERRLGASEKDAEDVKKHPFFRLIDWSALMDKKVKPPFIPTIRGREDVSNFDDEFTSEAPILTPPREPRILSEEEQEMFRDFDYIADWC
Sequence of INSR (human) (P06213 whole entry, looked up): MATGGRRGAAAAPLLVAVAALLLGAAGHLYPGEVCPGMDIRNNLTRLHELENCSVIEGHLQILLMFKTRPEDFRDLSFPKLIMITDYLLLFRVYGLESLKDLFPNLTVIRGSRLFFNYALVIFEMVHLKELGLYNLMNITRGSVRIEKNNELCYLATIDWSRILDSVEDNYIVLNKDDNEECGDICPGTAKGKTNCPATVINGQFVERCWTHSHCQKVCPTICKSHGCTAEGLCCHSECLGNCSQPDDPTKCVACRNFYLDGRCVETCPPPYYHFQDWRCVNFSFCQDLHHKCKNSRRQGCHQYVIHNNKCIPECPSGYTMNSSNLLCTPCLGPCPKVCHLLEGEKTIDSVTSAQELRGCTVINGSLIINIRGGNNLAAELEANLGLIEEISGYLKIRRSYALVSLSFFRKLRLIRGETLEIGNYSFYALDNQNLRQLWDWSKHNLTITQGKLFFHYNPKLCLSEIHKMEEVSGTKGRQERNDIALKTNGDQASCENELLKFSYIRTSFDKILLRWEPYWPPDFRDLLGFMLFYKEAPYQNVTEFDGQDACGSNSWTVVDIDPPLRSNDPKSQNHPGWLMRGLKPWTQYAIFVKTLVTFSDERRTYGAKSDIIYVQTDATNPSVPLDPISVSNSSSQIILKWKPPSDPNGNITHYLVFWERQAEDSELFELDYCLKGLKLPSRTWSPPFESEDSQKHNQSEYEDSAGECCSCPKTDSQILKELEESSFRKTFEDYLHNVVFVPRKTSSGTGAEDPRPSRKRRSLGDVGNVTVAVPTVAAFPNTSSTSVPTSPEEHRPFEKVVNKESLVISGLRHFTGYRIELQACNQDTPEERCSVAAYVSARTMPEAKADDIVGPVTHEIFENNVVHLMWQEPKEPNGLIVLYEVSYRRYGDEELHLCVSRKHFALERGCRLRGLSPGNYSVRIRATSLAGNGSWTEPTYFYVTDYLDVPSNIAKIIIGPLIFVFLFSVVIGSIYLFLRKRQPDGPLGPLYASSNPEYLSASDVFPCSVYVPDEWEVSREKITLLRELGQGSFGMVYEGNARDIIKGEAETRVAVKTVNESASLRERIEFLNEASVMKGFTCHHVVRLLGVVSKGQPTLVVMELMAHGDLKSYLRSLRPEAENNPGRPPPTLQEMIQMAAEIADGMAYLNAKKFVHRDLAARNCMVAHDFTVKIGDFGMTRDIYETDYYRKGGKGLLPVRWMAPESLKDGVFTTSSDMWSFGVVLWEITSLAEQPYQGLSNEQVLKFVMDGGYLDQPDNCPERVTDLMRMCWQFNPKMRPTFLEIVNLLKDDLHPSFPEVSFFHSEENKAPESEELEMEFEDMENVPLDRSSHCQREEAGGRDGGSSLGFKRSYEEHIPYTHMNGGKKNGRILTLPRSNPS
Sequence of MST4 (human) (Q9P289 whole entry, looked up): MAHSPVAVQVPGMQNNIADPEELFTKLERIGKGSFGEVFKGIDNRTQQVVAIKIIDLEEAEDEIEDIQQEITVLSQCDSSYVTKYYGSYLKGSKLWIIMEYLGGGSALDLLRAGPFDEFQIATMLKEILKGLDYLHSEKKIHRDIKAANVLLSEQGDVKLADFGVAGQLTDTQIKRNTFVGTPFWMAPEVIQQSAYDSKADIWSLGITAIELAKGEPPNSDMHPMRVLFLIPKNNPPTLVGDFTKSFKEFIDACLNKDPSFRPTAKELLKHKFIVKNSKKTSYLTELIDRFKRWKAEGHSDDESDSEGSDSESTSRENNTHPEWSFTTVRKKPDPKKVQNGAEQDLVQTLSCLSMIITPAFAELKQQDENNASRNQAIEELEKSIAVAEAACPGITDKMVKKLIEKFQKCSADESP
Sequence of DYRK2 (human) (Q92630 whole entry, looked up): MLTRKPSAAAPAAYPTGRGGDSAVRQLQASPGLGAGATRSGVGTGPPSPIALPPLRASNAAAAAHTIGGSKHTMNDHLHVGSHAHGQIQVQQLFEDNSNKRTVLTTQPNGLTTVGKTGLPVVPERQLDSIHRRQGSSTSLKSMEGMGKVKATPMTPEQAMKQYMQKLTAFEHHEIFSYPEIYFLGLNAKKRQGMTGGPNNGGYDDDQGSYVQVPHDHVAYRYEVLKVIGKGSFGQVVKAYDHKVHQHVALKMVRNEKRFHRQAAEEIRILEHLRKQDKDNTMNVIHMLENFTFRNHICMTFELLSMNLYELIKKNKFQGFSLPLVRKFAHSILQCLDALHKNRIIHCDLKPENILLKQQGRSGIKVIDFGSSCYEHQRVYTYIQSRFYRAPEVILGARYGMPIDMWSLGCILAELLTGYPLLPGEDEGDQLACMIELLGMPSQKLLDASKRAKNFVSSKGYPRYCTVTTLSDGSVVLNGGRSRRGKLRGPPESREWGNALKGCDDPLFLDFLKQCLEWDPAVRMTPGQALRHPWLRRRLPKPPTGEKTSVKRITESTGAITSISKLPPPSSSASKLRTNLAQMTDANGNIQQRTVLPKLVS

O=C(Nc1ccccc1-c1cn2c(CN3CCNCC3)csc2n1)c1cnc2ccccc2n1
residual activity ([1]; compound 0.1 µM): 86%
residual activity ([1]; compound 1.0 µM): 91%
residual activity ([1]; compound 10.0 µM): 88%
residual activity (AURKA (human); compound 1.0 µM): 102%
residual activity (AURKA (human); compound 10.0 µM): 94%
residual activity (BRSK1 (human); compound 1.0 µM): 94%
residual activity (BRSK1 (human); compound 10.0 µM): 87%
residual activity (DYRK2 (human); compound 0.1 µM): 98%
residual activity (DYRK2 (human); compound 1.0 µM): 94%
residual activity (DYRK2 (human); compound 10.0 µM): 94%
residual activity (EEF2K (human); compound 0.1 µM): 102%
residual activity (EEF2K (human); compound 1.0 µM): 106%
residual activity (EEF2K (human); compound 10.0 µM): 117%
residual activity (EPHA2 (human); compound 0.1 µM): 97%
residual activity (EPHA2 (human); compound 1.0 µM): 99%
residual activity (EPHA2 (human); compound 10.0 µM): 84%
residual activity (EPHB3 (human); compound 0.1 µM): 99%
residual activity (EPHB3 (human); compound 1.0 µM): 99%
residual activity (EPHB3 (human); compound 10.0 µM): 90%
residual activity (ERBB4 (human); compound 1.0 µM): 80%
residual activity (ERBB4 (human); compound 10.0 µM): 86%
residual activity (GSK3B (human); compound 1.0 µM): 78%
residual activity (GSK3B (human); compound 10.0 µM): 67%
residual activity (HIPK3 (human); compound 0.1 µM): 88%
residual activity (HIPK3 (human); compound 1.0 µM): 92%
residual activity (HIPK3 (human); compound 10.0 µM): 73%
residual activity (INSR (human); compound 0.1 µM): 127%
residual activity (INSR (human); compound 1.0 µM): 101%
residual activity (INSR (human); compound 10.0 µM): 100%
residual activity (IRAK4 (human); compound 1.0 µM): 63%
residual activity (IRAK4 (human); compound 10.0 µM): 24%
residual activity (MAP2K2 (human); compound 1.0 µM): 109%
residual activity (MAP2K2 (human); compound 10.0 µM): 90%
residual activity (MAP2K6 (human); compound 1.0 µM): 97%
residual activity (MAP2K6 (human); compound 10.0 µM): 98%
residual activity (MAP3K1 (human); compound 1.0 µM): 92%
residual activity (MAP3K1 (human); compound 10.0 µM): 45%
residual activity (MAP3K11 (human); compound 1.0 µM): 88%
residual activity (MAP3K11 (human); compound 10.0 µM): 56%
residual activity (MAP3K5 (human); compound 1.0 µM): 98%
residual activity (MAP3K5 (human); compound 10.0 µM): 100%
residual activity (MAP3K7 TAB1 (human); compound 1.0 µM): 91%
residual activity (MAP3K7 TAB1 (human); compound 10.0 µM): 86%
residual activity (MAP3K9 (human); compound 1.0 µM): 92%
residual activity (MAP3K9 (human); compound 10.0 µM): 40%
residual activity (MAPK12 (human); compound 0.1 µM): 84%
residual activity (MAPK12 (human); compound 1.0 µM): 95%
residual activity (MAPK12 (human); compound 10.0 µM): 92%
residual activity (MAPK9 (human); compound 0.1 µM): 101%
residual activity (MAPK9 (human); compound 1.0 µM): 93%
residual activity (MAPK9 (human); compound 10.0 µM): 87%
residual activity (MAPKAPK2 (human); compound 0.1 µM): 90%
residual activity (MAPKAPK2 (human); compound 1.0 µM): 92%
residual activity (MAPKAPK2 (human); compound 10.0 µM): 59%
residual activity (MARK1 (human); compound 1.0 µM): 85%
residual activity (MARK1 (human); compound 10.0 µM): 74%
residual activity (MARK2 (human); compound 1.0 µM): 106%
residual activity (MARK2 (human); compound 10.0 µM): 83%
residual activity (MARK4 (human); compound 1.0 µM): 110%
residual activity (MARK4 (human); compound 10.0 µM): 85%
residual activity (MELK (human); compound 0.1 µM): 97%
residual activity (MELK (human); compound 1.0 µM): 74%
residual activity (MELK (human); compound 10.0 µM): 52%
residual activity (MST4 (human); compound 0.1 µM): 73%
residual activity (MST4 (human); compound 1.0 µM): 100%
residual activity (MST4 (human); compound 10.0 µM): 77%
residual activity (NTRK1 (human); compound 1.0 µM): 47%
residual activity (NTRK1 (human); compound 10.0 µM): 30%
residual activity (NUAK1 (human); compound 1.0 µM): 106%
residual activity (NUAK1 (human); compound 10.0 µM): 78%
residual activity (PAK4 (human); compound 0.1 µM): 83%
residual activity (PAK4 (human); compound 1.0 µM): 110%
residual activity (PAK4 (human); compound 10.0 µM): 96%
residual activity (PAK6 (human); compound 0.1 µM): 101%
residual activity (PAK6 (human); compound 1.0 µM): 92%
residual activity (PAK6 (human); compound 10.0 µM): 87%
residual activity (PIM1 (human); compound 0.1 µM): 40%
residual activity (PIM1 (human); compound 1.0 µM): 18%
residual activity (PIM1 (human); compound 10.0 µM): 10%
residual activity (PKN2 (human); compound 0.1 µM): 90%
residual activity (PKN2 (human); compound 1.0 µM): 103%
residual activity (PKN2 (human); compound 10.0 µM): 104%
residual activity (PRKCA (human); compound 0.1 µM): 114%
residual activity (PRKCA (human); compound 1.0 µM): 106%
residual activity (PRKCA (human); compound 10.0 µM): 80%
residual activity (PRKCZ (human); compound 0.1 µM): 78%
residual activity (PRKCZ (human); compound 1.0 µM): 105%
residual activity (PRKCZ (human); compound 10.0 µM): 103%
residual activity ([2]; compound 1.0 µM): 93%
residual activity ([2]; compound 10.0 µM): 97%
